Laboratory results: patent publication US20250242086A1, “THERAPEUTIC BIOMATERIAL THAT ATTENUATES THE FOREIGN BODY RESPONSE” (The Regents of the University of Colorado, a body corporate, priority 2022, published 2025)

How the values were obtained:
[1] = test system: J774A.1 macrophage cell line; test: Caspase-Glo 8 caspase activity assay in J774A.1 macrophages with FasL with or without small molecule inhibitor; format: cell-based
Experimental: FIG. 11 provides two illustrations depicting in vitro assessment of cell behavior. (A) In Vitro Experimental Protocol: J774A.1 macrophage cell line was incubated overnight at 20,000 cells/well and treated with lipopolysaccharide (LPS) for 4 hours or 3days. Exogenous FasL was then added to initiate the extrinsic apoptotic pathway for 6 hours before caspase activity (Caspase-Glo3/7) and metabolic activity (alamarBlue) assays were performed to study the differences in cell behavior after exposure to each stimulant. (B) In Vitro Experimental Protocol for Small Molecule Testing. J774A. 1 macrophage cell line was incubated overnight at 20,000 cells/well and cultured […] for 3 days. Exogenous FasL was then added to initiate the extrinsic apoptotic pathway with or without a small molecule inhibitor for 6 hours before a caspase activity (Caspase-Glo8) assay was performed to study the differences in cell behavior after exposure. […] J774A.1 macrophage cell line was incubated overnight at 20,000 cells/well and cultured in complete media for 3 days. Exogenous FasL was then added to initiate the extrinsic apoptotic pathway with or without a small molecule inhibitor for 6 hours before a caspase activity (Caspase-Glo 8) assay was performed to study the differences in cell behavior after exposure. Lastly, tests were performed utilizing a small molecule inhibitor (YM155) of CFLIP. […]

macrophages = details: in vitro; cited from earlier work
cFLIP in cancer cells = details: cancer cells versus non-cancerous cells; cited from earlier work

In the case of `COCCn1c2c([n+](Cc3cnccn3)c1C)C(=O)c1ccccc1C2=O` [YM155], the “fold change in caspase 8 activity relative to untreated control” value ([1]; 100 ng/mL small molecule, FasL 6 hours, J774A.1 cells cultured 3 days, N=3) is given as “about 23 fold”, the “effect on caspase 8 activity (qualitative)” value ([1]; small molecule exposure, J774A.1 cells, FasL) is given as “increased caspase 8 activity” and the “effect on anti-apoptotic programming in macrophages” value (macrophages) is given as “reversed anti-apoptotic programming in macrophages in vitro”. For the same molecule, the “cFLIP inhibition in cancer cells and induction of their death” value (cFLIP in cancer cells) was “inhibited cFLIP in cancer cells and induced their death without affecting non-cancerous cells”.
